# According to patent US8192962B2, “Processes for detecting toxic substances” (Daikin Industries, Ltd., priority 2001, dated 2012):
# Test system: Mitochondria-located protein genes
# Test: DNA chip mRNA expression in yeast, mitochondria-located protein genes (Table 2)
# Type: cell-based, Saccharomyces cerevisiae S288C
# Details: cells incubated two hours with the chemical substance
# Method in brief: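 Cells were grown at 25° C. in YPD, treated at logarithmic phase for 2 h with a chemical at a concentration inhibiting growth but not causing death, and compared with untreated cultures. Labeled cDNA was hybridized to a DNA chip carrying all yeast genes, and the expression ratio was taken from scanner fluorescence.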
smiles,measurement,setting,value
"CCCCCCCCCCCCOS(=O)(=O)[O-].[Na+] [(18), sodium lauryl sulfate]",The level of expressed mRNA in the presence of chemical substance/The level of expressed mRNA in the absence of chemical substance,yeast gene YJR121W,1.4
same,The level of expressed mRNA in the presence of chemical substance/The level of expressed mRNA in the absence of chemical substance,yeast gene YKL003C,1.2
same,The level of expressed mRNA in the presence of chemical substance/The level of expressed mRNA in the absence of chemical substance,yeast gene YKL016C,1.7
same,The level of expressed mRNA in the presence of chemical substance/The level of expressed mRNA in the absence of chemical substance,yeast gene YKL141W,1.8
same,The level of expressed mRNA in the presence of chemical substance/The level of expressed mRNA in the absence of chemical substance,yeast gene YKL142W,3.6
same,The level of expressed mRNA in the presence of chemical substance/The level of expressed mRNA in the absence of chemical substance,yeast gene YKL148C,1.0
same,The level of expressed mRNA in the presence of chemical substance/The level of expressed mRNA in the absence of chemical substance,yeast gene YKL170W,1.4
same,The level of expressed mRNA in the presence of chemical substance/The level of expressed mRNA in the absence of chemical substance,yeast gene YKL194C,1.1
same,The level of expressed mRNA in the presence of chemical substance/The level of expressed mRNA in the absence of chemical substance,yeast gene YKR066C,1.1
same,The level of expressed mRNA in the presence of chemical substance/The level of expressed mRNA in the absence of chemical substance,yeast gene YLL041C,1.7
same,The level of expressed mRNA in the presence of chemical substance/The level of expressed mRNA in the absence of chemical substance,yeast gene YLR038C,2.1
same,The level of expressed mRNA in the presence of chemical substance/The level of expressed mRNA in the absence of chemical substance,yeast gene YLR259C,1.0
same,The level of expressed mRNA in the presence of chemical substance/The level of expressed mRNA in the absence of chemical substance,yeast gene YLR295C,1.5
same,The level of expressed mRNA in the presence of chemical substance/The level of expressed mRNA in the absence of chemical substance,yeast gene YLR304C,0.7
same,The level of expressed mRNA in the presence of chemical substance/The level of expressed mRNA in the absence of chemical substance,yeast gene YLR348C,1.0
same,The level of expressed mRNA in the presence of chemical substance/The level of expressed mRNA in the absence of chemical substance,yeast gene YLR395C,2.3
same,The level of expressed mRNA in the presence of chemical substance/The level of expressed mRNA in the absence of chemical substance,yeast gene YML054C,1.6
same,The level of expressed mRNA in the presence of chemical substance/The level of expressed mRNA in the absence of chemical substance,yeast gene YML120C,1.6
same,The level of expressed mRNA in the presence of chemical substance/The level of expressed mRNA in the absence of chemical substance,yeast gene YML129C,1.3
same,The level of expressed mRNA in the presence of chemical substance/The level of expressed mRNA in the absence of chemical substance,yeast gene YMR023C,1.4
same,The level of expressed mRNA in the presence of chemical substance/The level of expressed mRNA in the absence of chemical substance,yeast gene YMR035W,2.4
same,The level of expressed mRNA in the presence of chemical substance/The level of expressed mRNA in the absence of chemical substance,yeast gene YMR083W,1.1
same,The level of expressed mRNA in the presence of chemical substance/The level of expressed mRNA in the absence of chemical substance,yeast gene YMR089C,1.1
same,The level of expressed mRNA in the presence of chemical substance/The level of expressed mRNA in the absence of chemical substance,yeast gene YMR152W,0.9
same,The level of expressed mRNA in the presence of chemical substance/The level of expressed mRNA in the absence of chemical substance,yeast gene YMR203W,0.7
same,The level of expressed mRNA in the presence of chemical substance/The level of expressed mRNA in the absence of chemical substance,yeast gene YMR267W,1.3
same,The level of expressed mRNA in the presence of chemical substance/The level of expressed mRNA in the absence of chemical substance,yeast gene YNL055C,1.7
same,The level of expressed mRNA in the presence of chemical substance/The level of expressed mRNA in the absence of chemical substance,yeast gene YNL071W,1.2
same,The level of expressed mRNA in the presence of chemical substance/The level of expressed mRNA in the absence of chemical substance,yeast gene YNL073W,1.0
same,The level of expressed mRNA in the presence of chemical substance/The level of expressed mRNA in the absence of chemical substance,yeast gene YNL104C,0.9
same,The level of expressed mRNA in the presence of chemical substance/The level of expressed mRNA in the absence of chemical substance,yeast gene YNL256W,0.6
same,The level of expressed mRNA in the presence of chemical substance/The level of expressed mRNA in the absence of chemical substance,yeast gene YOL096C,1.2
same,The level of expressed mRNA in the presence of chemical substance/The level of expressed mRNA in the absence of chemical substance,yeast gene YOR020C,1.7
same,The level of expressed mRNA in the presence of chemical substance/The level of expressed mRNA in the absence of chemical substance,yeast gene YOR037W,1.6
same,The level of expressed mRNA in the presence of chemical substance/The level of expressed mRNA in the absence of chemical substance,yeast gene YOR100C,0.8
same,The level of expressed mRNA in the presence of chemical substance/The level of expressed mRNA in the absence of chemical substance,yeast gene YOR130C,1.1
same,The level of expressed mRNA in the presence of chemical substance/The level of expressed mRNA in the absence of chemical substance,yeast gene YOR142W,1.0
same,The level of expressed mRNA in the presence of chemical substance/The level of expressed mRNA in the absence of chemical substance,yeast gene YOR150W,1.3
same,The level of expressed mRNA in the presence of chemical substance/The level of expressed mRNA in the absence of chemical substance,yeast gene YOR176W,2.1
same,The level of expressed mRNA in the presence of chemical substance/The level of expressed mRNA in the absence of chemical substance,yeast gene YOR187W,1.3
same,The level of expressed mRNA in the presence of chemical substance/The level of expressed mRNA in the absence of chemical substance,yeast gene YOR316C,1.0
same,The level of expressed mRNA in the presence of chemical substance/The level of expressed mRNA in the absence of chemical substance,yeast gene YPL040C,1.1
same,The level of expressed mRNA in the presence of chemical substance/The level of expressed mRNA in the absence of chemical substance,yeast gene YPL134C,1.3
same,The level of expressed mRNA in the presence of chemical substance/The level of expressed mRNA in the absence of chemical substance,yeast gene YPL135W,1.7
same,The level of expressed mRNA in the presence of chemical substance/The level of expressed mRNA in the absence of chemical substance,yeast gene YPL215W,1.1
same,The level of expressed mRNA in the presence of chemical substance/The level of expressed mRNA in the absence of chemical substance,yeast gene YPL262W,1.2
same,The level of expressed mRNA in the presence of chemical substance/The level of expressed mRNA in the absence of chemical substance,yeast gene YPR024W,0.8
same,The level of expressed mRNA in the presence of chemical substance/The level of expressed mRNA in the absence of chemical substance,yeast gene YPR037C,1.7
same,The level of expressed mRNA in the presence of chemical substance/The level of expressed mRNA in the absence of chemical substance,yeast gene YPR047W,1.5
same,The level of expressed mRNA in the presence of chemical substance/The level of expressed mRNA in the absence of chemical substance,yeast gene YPR134W,1.2
